Measurements as given in PMC7036753, “Lipidated Analogs of the LL-37-Derived Peptide Fragment KR12—Structural Analysis, Surface-Active Properties and Antimicrobial Activity” (International Journal of Molecular Sciences, 2020).
In brackets after ≈: the same amount, converted by molar mass. Ends that are not written are not given here. Peptide text beside a SMILES is read from it. * marks the point of attachment. Myristoyl = CCCCCCCCCCCCCC(=O)*; Lauroyl = CCCCCCCCCCCC(=O)*; Decanoyl = CCCCCCCCCC(=O)*

Key:
[1] = test system: A. baumannii ATCC BAA-1605; assay type: cell-based, Acinetobacter baumannii; settings: ATCC BAA-1605, 18 h
Protocol: (§1) Examination of antimicrobial activity of the test compounds was conducted on reference strains of bacteria assigned to ESKAPE group of pathogens: Enterococcus faecium ATCC 700221, Klebsiella pneumoniae ATCC 700603, Acinetobacter baumannii ATCC BAA-1605, Pseudomonas aeruginosa ATCC 9027, Klebsiella aerogenes ATCC 13048 (formerly Enterobacter aerogenes) and reference strains of Staphylococcus aureus, namely: S. aureus ATCC 25923, S. aureus ATCC 6538, S. aureus ATCC 33591 (MRSA), S. aureus ATCC 9144 and S. aureus ATCC 12598. All the strains were stored at −80 °C in Roti®-Store cryo vials (Carl Roth GmbH, Karlsruhe, Germany) and before the tests were transferred into fresh Mueller-Hinton Medium (BioMaxima, Lublin, Poland) and incubated for 24 h at 37 °C. Subsequently, each bacterial inoculum was seeded on Mueller-Hinton Agar plates (BioMaxima) and incubated again for 24 h. The cultures prepared in this way were used in further antimicrobial assays and prepared as described above. The MIC values were determined by the broth microdilution method according to Clinical and Laboratory Standards Institute Protocol. For this purpose, initial inoculums of bacteria (0.5 × 10^5 colony forming unit (CFU)/mL) in Mueller–Hinton Broth were exposed to the ranging concentrations of compounds (0.5–256 µg/mL) and incubated for 18 h at 37 °C. The experiments were conducted on 96-well microtiter plates, with a final volume of 100 µL. Cell densities were adjusted spectrophotometrically (Multiskan™ GO Microplate Spectrophotometer, Thermo Scientific) at 600 nm. The MICs were taken as the lowest drug concentration at which a visible growth of microorganisms was inhibited. All experiments were conducted in triplicate and included positive (growth) and negative (sterility) controls.

[2] = test system: S. aureus ATCC 33591 (MRSA); assay type: cell-based, Staphylococcus aureus; settings: ATCC 33591, 18 h
Protocol: as §1

S. aureus ATCC 6538 = assay type: cell-based, Staphylococcus aureus; settings: ATCC 6538, 18 h
Protocol: as §1

S. aureus ATCC 12598 = assay type: cell-based, Staphylococcus aureus; settings: ATCC 12598, 18 h
Protocol: as §1

S. aureus ATCC 9144 = assay type: cell-based, Staphylococcus aureus; settings: ATCC 9144, 18 h
Protocol: as §1

S. aureus ATCC 25923 = assay type: cell-based, Staphylococcus aureus; settings: ATCC 25923, 18 h
Protocol: as §1

K. aerogenes ATCC 13048 = assay type: cell-based, Klebsiella aerogenes; settings: ATCC 13048, 18 h
Protocol: as §1

[3] = test system: S. aureus ATCC 9144 biofilm; assay type: cell-based, Staphylococcus aureus; settings: ATCC 9144, 24 h
Protocol: (§2) The MBECs values were determined according to the method reported previously. Briefly, 24-h cultures of S. aureus, namely: S. aureus ATCC 25923, S. aureus ATCC 6538, S. aureus ATCC 33591 (MRSA), S. aureus ATCC 9144 and S. aureus ATCC 12598 were diluted to a concentration of 0.5 × 10^7 CFU/mL and added to the test wells of polystyrene microdilution flat-bottom plates. After 24-h of incubation at 37 °C, the wells were rinsed three times with PBS to remove non-adherent cells. Subsequently, 100 μL of the test compounds over a concentration range 0.5–256 µg/mL were added to each well and incubated again for 24 h at 37 °C. After this period, 20 μL of the resazurin (7-hydroxy-3H-phenoxazin-3-one-10-oxide, 4 mg/mL) solution was added to each well. After 1 h of incubation, the MBECs were read out. The determined values were recorded as the lowest concentration at which the reduction of resazurin (from blue to pink) was lower or equal to 10 ± 0.5% as compared to the positive (100%) and negative (0%) controls. All experiments were performed in triplicate.

[4] = test system: S. aureus ATCC 25923 biofilm; assay type: cell-based, Staphylococcus aureus; settings: ATCC 25923, 24 h
Protocol: as §2

[5] = test system: S. aureus ATCC 33591 (MRSA) biofilm; assay type: cell-based, Staphylococcus aureus; settings: ATCC 33591, 24 h
Protocol: as §2

[6] = test system: S. aureus ATCC 6538 biofilm; assay type: cell-based, Staphylococcus aureus; settings: ATCC 6538, 24 h
Protocol: as §2

[7] = test system: S. aureus ATCC 12598 biofilm; assay type: cell-based, Staphylococcus aureus; settings: ATCC 12598, 24 h
Protocol: as §2

P. aeruginosa ATCC 9027 = assay type: cell-based, Pseudomonas aeruginosa; settings: ATCC 9027, 18 h
Protocol: as §1

[8] = test system: reference strains of S. aureus; assay type: cell-based, Staphylococcus aureus; settings: reference strains of, 24 h
Protocol: as §1, with “For this purpose, initial inoculums of bacteria (0.5 × 10^5 colony forming unit (CFU)/mL) in Mueller–Hinton Broth were exposed to the ranging concentrations of compounds (0.5–256 µg/mL) and incubated for 18 h at 37 °C.” left out

E. faecium ATCC 700221 = assay type: cell-based, Enterococcus faecium; settings: ATCC 700221, 18 h
Protocol: as §1

[9] = test system: human keratinocytes (HaCaT); assay type: cell-based; settings: 24 h
Protocol: The cytotoxicity of test compounds (IC50) was evaluated for human keratinocytes (HaCaT, ATCC) using classic MTT assay on 96-well plates. In this assay, a colorimetric determination of the cell metabolic activity was carried out. Specifically, the color intensity reflects the number of live cells that can be measured spectrophotometrically. […] A day after plating 500 cells per well, a series of concentrations (0.5–500 μg/mL) of the test compounds were added. Dimethyl sulfoxide (DMSO) was used as a control in cells at a final concentration of 1.0% (v/v), which was related to the maximal concentration of the solvent compounds used in the experiment. After 24 h of incubation with test compounds, a medium containing 1 mg/mL of MTT was added up to a final concentration of 0.5 mg/mL and subsequently incubated at 37 °C for 4 h. Then, the medium was aspirated and the formazan product was solubilized with DMSO. The background absorbance at 630 nm was subtracted from that at 570 nm for each well (Epoch, BioTek Instruments, Winooski, VT, USA). Six replicates were conducted for each concentration. All experiments were repeated at least twice and the resulting IC50 values were calculated with a GraFit 7 software (v. 7.0, Erithacus, Berkley, CA, USA).

[10] = test system: K. pneumoniae ATCC 700603; assay type: cell-based, Klebsiella pneumoniae; settings: ATCC 700603, 18 h
Protocol: as §1

Row | Molecule | MIC [1] [µg/mL] | MIC [2] [µg/mL] | MIC (S. aureus ATCC 6538) [µg/mL] | MIC (S. aureus ATCC 12598) [µg/mL] | MIC (S. aureus ATCC 9144) [µg/mL] | MIC (S. aureus ATCC 25923) [µg/mL] | MIC (K. aerogenes ATCC 13048) [µg/mL] | MBEC [3] [µg/mL] | MBEC [4] [µg/mL] | MBEC [5] [µg/mL] | MBEC [6] [µg/mL] | MBEC [7] [µg/mL] | MIC (P. aeruginosa ATCC 9027) [µg/mL] | GM (geometric mean of the MIC values against S. aureus) [8] [µg/mL] | MIC (E. faecium ATCC 700221) [µg/mL] | IC50 [9] [µg/mL] | MIC [10] [µg/mL]
1 | CCCCCCCCCCCCCC(=O)N[C@@H](CCCCN)C(=O)N[C@@H](CCCNC(=N)N)C(=O)N[C@H](C(=O)N[C@H](C(=O)N[C@@H](CCC(N)=O)C(=O)N[C@@H](CCCNC(=N)N)C(=O)N[C@H](C(=O)N[C@@H](CCCCN)C(=O)N[C@@H](CC(=O)O)C(=O)N[C@@H](Cc1ccccc1)C(=O)N[C@@H](CC(C)C)C(=O)N[C@@H](CCCNC(=N)N)C(N)=O)[C@@H](C)CC)C(C)C)[C@@H](C)CC [VII, C14-KR12-NH2] (Myristoyl-KRIVQRIKDFLR-NH2) | 32 (≈ 18 µM) | 16 (≈ 8.98 µM) | 64 (≈ 35.9 µM) | 128 (≈ 71.9 µM) | 64 (≈ 35.9 µM) | 128 (≈ 71.9 µM) | 128 (≈ 71.9 µM) | 128 | 256 | 256 | 256 | 64 | 128 (≈ 71.9 µM) | 64.00 | 8 (≈ 4.49 µM) | 1.29 (≈ 0.724 µM) | 64 (≈ 35.9 µM)
2 | CCCCCCCCCC(=O)N[C@@H](CCCCN)C(=O)N[C@@H](CCCNC(=N)N)C(=O)N[C@H](C(=O)N[C@H](C(=O)N[C@@H](CCC(N)=O)C(=O)N[C@@H](CCCNC(=N)N)C(=O)N[C@H](C(=O)N[C@@H](CCCCN)C(=O)N[C@@H](CC(=O)O)C(=O)N[C@@H](Cc1ccccc1)C(=O)N[C@@H](CC(C)C)C(=O)N[C@@H](CCCNC(=N)N)C(N)=O)[C@@H](C)CC)C(C)C)[C@@H](C)CC [V, C10-KR12-NH2] (Decanoyl-KRIVQRIKDFLR-NH2) | 8 (≈ 4.64 µM) | 4 (≈ 2.32 µM) | 4 (≈ 2.32 µM) | 4 (≈ 2.32 µM) | 4 (≈ 2.32 µM) | 4 (≈ 2.32 µM) | 16 (≈ 9.27 µM) | 16 | 32 | 32 | 32 | 8 | 8 (≈ 4.64 µM) | 4.00 | 2 (≈ 1.16 µM) | 5.97 (≈ 3.46 µM) | 16 (≈ 9.27 µM)
3 | KRIVQRIKDFLR-NH2 [X, KRIVQRIKDFLR-NH2] | 256 | >256 | 256 | >256 | >256 | >256 | >256 | >256 | >256 | >256 | >256 | >256 | 16 | >256.00 | 8 | 74.60 | >256
4 | Ac-KRIVQRIKDFLR-NH2 [I, Ac-KR12-NH2 (C2-KR12-NH2)] | >256 | >256 | 256 | >256 | >256 | >256 | >256 | >256 | >256 | >256 | >256 | >256 | 64 | >256.00 | 16 | 84.20 | >256
5 | CCCCCCCCCCCC(=O)N[C@@H](CCCCN)C(=O)N[C@@H](CCCNC(=N)N)C(=O)N[C@H](C(=O)N[C@H](C(=O)N[C@@H](CCC(N)=O)C(=O)N[C@@H](CCCNC(=N)N)C(=O)N[C@H](C(=O)N[C@@H](CCCCN)C(=O)N[C@@H](CC(=O)O)C(=O)N[C@@H](Cc1ccccc1)C(=O)N[C@@H](CC(C)C)C(=O)N[C@@H](CCCNC(=N)N)C(N)=O)[C@@H](C)CC)C(C)C)[C@@H](C)CC [VI, C12-KR12-NH2] (Lauroyl-KRIVQRIKDFLR-NH2) | 16 (≈ 9.13 µM) | 16 (≈ 9.13 µM) | 32 (≈ 18.3 µM) | 32 (≈ 18.3 µM) | 32 (≈ 18.3 µM) | 32 (≈ 18.3 µM) | 32 (≈ 18.3 µM) | 64 | 256 | 128 | 256 | 32 | 32 (≈ 18.3 µM) | 27.86 | 4 (≈ 2.28 µM) | 7.60 (≈ 4.33 µM) | 32 (≈ 18.3 µM)
